The nature of data set [1]: Viability assay against CHO cells (MTT colorimetric assay). In kind it is cell-based, Chinese hamster. The settings on record: Chinese hamster, CHO cells, 72 h, replicates n = 1, 2, 3, read-out: % viable cells. How it is done: (§1) (f) Cell culture: Cells were cultured in Minimum Essential Medium Eagle—Alpha Modification (α-MEM) or […] Dulbecco's Modified Eagle Medium (DMEM), purchased from Gibco. […] All cell culture plastic ware was obtained from Coming or Falcon. Cells were cultured at 37° C. in a humidified chamber with 5% CO2. When used in cell culture, DMSO was purified by filtration through a […] filter. All experiments were carried out in a laminar flow culture cabinet, unless otherwise noted.
(§2) Immortalized CHO cells had been stored in liquid nitrogen. To revive cells, a 1-mL tube of the frozen cells in medium containing 10% DMSO was warmed in a 30° C. water bath and diluted with 9 mL of fresh media. Media contained 10% FBS and 100 U/mL penicillin and […] streptomycin, unless otherwise indicated. The cells were incubated in a T-25 flask at 37° C. at 5% CO2. After 24 hours, the medium was aspirated and replaced with fresh medium. When cells reached a level of 90-100% confluence, they were sub-cultured. […] Once the cells were detached from the tissue culture flask, 3-5 mL media was added to quench the trypsin and the mixture was transferred to a 10 mL centrifuge tube. The mixture was centrifuged for 5 min at […], and the supernatant was discarded. The cells were suspended in fresh medium, diluted as required, and transferred to a new culture flask.
(§3) To assay cell viability, a nearly confluent tissue culture flask was trypsinized, and the cells were counted following treatment with Trypan blue, using a hemocytometer. The cells were then diluted to the appropriate stock concentrations in fresh medium and transferred in 100 μL to a 96-well plate using a multi-channel pipette. The number of cells plated varied from experiment to experiment. These were incubated at 37° C. and 5% CO2 for a 24-hour period to allow for adherence. The medium was aspirated, and fresh medium was added, which contained the desired additives in DMSO. The cells were then re-incubated for 72 h. At the completion of the experiment, a 100 μL aliquot of 25 mg/mL MTT in phosphate-buffered saline (PBS) was added to each well. The plate was incubated three hours further to allow for the formation of the formazan product in viable cells. The media was carefully aspirated, and the purple product was solubilized in DMSO. […] Data was processed in Microsoft Excel and GraphPad Prism. Experiments were performed in triplicates unless otherwise noted, and the error bars were calculated as the standard error of the mean.
(§4) Each cell line was plated in a 96-well plate, with 100 μL of the stock solution per well (5000 cells per well) and incubated for 24 hours. […] The cells were incubated for 72 hours, at which point viability was assessed as described.
Background: Tetrazolium assays rely on reduction of a dye to a coloured formazan, in cell work by metabolically active cells.

Data set [2] concerns CHO cells. Described as above. Conditions: for % viable cells: 72 h, replicates n = 1, 2, 3, listed as N3-Pro-amanitin (3). In kind it is cell-based, Chinese hamster. How it is done:
as §1, §2, §3, §4

Data set [3] can be described thus: Cell viability assay (BrdU incorporation) on HEK293-OATP1B3 cells. In kind it is cell-based, human. The settings on record: human, HEK293-OATP1B3 cells; for viability at 96 h, 1 µM: highest used concentration of 1 μM. How it is done:
(§5) . HEK293 and HEK-OATP1B3 cells were plated at 2.5×10^3 cells/well in a 1:1 mixture of Ham's F12 with DMEM containing 10% charcoal-stripped fetal calf serum (FCS) onto poly-D-lysine-coated 96-well plates and grown for 24 hours. Subsequently, cells were incubated with amanitin analogs at 8 different concentrations (1×10^−6 M to 1.28×10^−11 M, serial 1:5 dilutions). Following 96 h of drug exposure, cell viability was determined by a BrdU incorporation assay (Cell Proliferation ELISA, BrdU, Roche) and chemiluminescence was measured using a FLUOstar Optima plate reader (BMG LABtech). Data analysis was performed with GraphPad Prism 8 (GraphPad Software, Inc., La Jolla, CA) software to plot curve fits.
A general note: Dividing cells build labelled thymidine or BrdU into new DNA.

Data set [4] deals with T1, Pol II (Homo sapiens, UniProt P24928).
T1 construct: HeLaScribe® nuclear extract containing Pol II and all other transcription factors; purchased Promega; host or cells: HeLa nuclear extract (endogenous protein)
As to the kind of experiment: In vitro transcription runoff assay using HeLaScribe nuclear extract. In kind it is biochemical. Conditions: for Transcription activity E (%): mean ± standard deviation. From the text:
(h) In vitro transcription assay of synthetic amanitins containing analogs of Hyp: Primers were purchased from IDT via standard phosphoramidite chemistry. dNTP and rNTP were purchased from Thermofisher. GoTaq polymerase and HeLaScribe*Nuclear Extract in vitro Transcription System was purchased from Promega. Taq polymerase was purchased from NEB. [^32P] α-dGTP (3000 Ci/mmol 10 mCi/ml EasyTide) and [^32P] α-GTP (3000 Ci/mmol 10 mCi/ml EasyTide) were purchased from Perkin Elmer. QIAquick PCR purifcation kit was purchased from Qiagen. AcGFP1-N1 was a gift (Addgene plasmid #54705; http://n2t.net/addgene:54705; RRID:Addgene_54705). DNA Primer sequences were:
The DNA template for transcription runoff was synthesized by PCR with template pAcGFP-N1, and primers P1 and P2. To a final volume of 20 μL, 1 x GoTaq Buffer, 250 μM of each dNTP, 500 nM of each primers P1 and P2, […] pAcGFP-N1 and 0.05 U/μL GoTaq were employed to thermocycle for 30 cycles (30 s at 95° C., 30 s at 50° C. and 60 s at 72° C., Bio-Rad). A 1 μL aliquot of the amplified solution was resolved with 6×DNA loading dye in a 1% agarose gel containing […] and then visualized using GelDoc XR imager (Bio-Rad). Purification was completed via QIAquick PCR purification kit (Qiagen). The radioactive chromatographic standard was synthesized by PCR with template pAcGFP-N1, and primers P3 and P4. To a final volume of 50 μL, 1 x Thermopol Buffer, 200 μM of each dNTP, 500 nM of each primers P3 and P4, 10 pg/μL pAcGFP-N1 and 0.02 U/μL Vent polymerase, 1 μL [^32P] α-dGTP were employed to thermocycle for 30 cycles (30 s at 95° C., 30 s at 62° C. and 30 s at 72° C., Bio-Rad). A 1 μL aliquot of the amplified solution was resolved with 6×DNA loading dye in 8% denaturing PAGE and then visualized by autoradiography via the Typhoon 9200 imager (Molecular namics-Amersham-GE). Purification was completed via QIAquick PCR purification kit (Qiagen). The transcription runoff assay was modified from HeLaScribe® Nuclear Extract in vitro Transcription System (Promega). […]. The pellet was resolved by 8% denaturing PAGE and then visualized by autoradiography via the Typhoon 9200 imager (Molecular dynamics-Amersham-GE). Dosimetry was calculated by ImageJ, and the 3 parameter logistic fit was completed by Origin 2019 (OriginLab). […]
All data were presented in mean±standard deviation (n=3).

Data set [5] deals with HEK293-OATP1B3 cells. As to the kind of experiment: Cell viability assay (BrdU incorporation) on HEK293-OATP1B3 cells. The data set is classed as cell-based, human. Conditions: HEK293-OATP1B3 vs HEK293. How it is done:
as §5

For data set [6], the target named is RNA-polymerase II (Homo sapiens, UniProt P24928). The settings on record: cited from earlier work.
Data set [7] concerns the target eukaryotic RNA polymerase II (Pol II) (Homo sapiens, UniProt P24928). Conditions: literature; cited from earlier work.
Data set [8] has as its system HEK293 cells. The data set is classed as cell-based, human. Conditions: wt-HEK293 cells lacking OATP1B3; 96 h. On the procedure:
as §5

In data set [9] the test system is CHO cells. Conditions: background statement, read-out: Ki (CHO cells readily killed); cited from earlier work.

“And” between values parts separate entries of the source, which are not always exact repeats. Identical values can stand only once. Starred links: 1 amine or outer side, 2 acyl side, 3 side chain; linkers in the order of their positions; H or OH if unused. Positions of bridges follow the written chain, without caps; N, C: chain ends. Non-standard residues stand in square brackets, D forms with d. Residues, ends and D or L forms follow the SMILES beside them. Trp(2-yl) = O=C([C@H](Cc1c([*:3])[nH]c2ccccc12)N[*:1])[*:2]; X2 = [N-]=[N+]=N[C@@H]1C[C@@H](C(=O)[*:2])N([*:1])C1; Ile(4R-OH,5-OH) = C[C@H]([C@H](N)C(=O)O)[C@@H](O)CO

What is called IC50 is the point on the concentration scale where inhibition reaches its midpoint. With `CC[C@H](C)[C@@H]1NC(=O)CNC(=O)[C@@H]2Cc3c([nH]c4ccccc34)SC[C@H](NC(=O)CNC1=O)C(=O)N[C@@H](CC(N)=O)C(=O)N1C[C@H](N=[N+]=[N-])C[C@H]1C(=O)N[C@@H]([C@@H](C)[C@@H](O)CO)C(=O)N2` [Compound 3, N3-Pro-amanitin] (cyclo(CN[X2][Ile(4R-OH,5-OH)][Trp(2-yl)]GIG); thioether 1-5), the viability at 72 h, 1e-05 M in [1] (1e-005 M) was 107%. Further, the viability at 72 h, 1.25e-06 M in [1] (1.25e-006 M) turned out to be 105%. The viability at 72 h, 1.56e-07 M in [1] (1.56e-007 M) stood at 101%. The viability at 72 h, 2e-05 M in data set [1] (2e-005 M) was found to be 112%. For the same compound, in data set [1] (2.5e-006 M), the viability at 72 h, 2.5e-06 M turned out to be 104%. For the same compound, the viability at 72 h, 3.125e-07 M in data set [1] (3.125e-007 M) was 99%. Moreover, the viability at 72 h, 5e-06 M in data set [1] (5e-006 M) is 104%. Also, the viability at 72 h, 6.25e-07 M in [1] (6.25e-007 M) worked out at 101%. For the same compound, the “% viable cells” value in data set [2] (1e-005 M) was 100% and 94%; in data set [2] (1.25e-006 M), 88% and 89%; in data set [2] (1.56e-007 M), 89% and 88%; in [2] (2.5e-006 M) it was 95% and 88%; in [2] (3.125e-007 M), 89% and 91%; in data set [2] (5e-006 M), 88% and 89%. The “% viable cells” value in data set [2] (6.25e-007 M) was 93% and 87%. The viability at 96 h, 1 µM in data set [3] (HEK293 cells overexpressing OATP1B3 (HEK293-OATP1B3)) came to 68%. For the same compound, the IC50 in data set [4] (IC50 (nM), Table 12, n = 3, high values estimated from activity at [I]=1.0 μM) is > 1000 nM. In [4] (up to 1 μM concentrations), the “inhibitory effects” value is on record as “did not exhibit any noticeable inhibitory effects”.
`CC[C@H](C)[C@@H]1NC(=O)CNC(=O)[C@@H]2Cc3c([nH]c4cc(O)ccc34)[S@+]([O-])C[C@H](NC(=O)CNC1=O)C(=O)N[C@@H](CC(=O)O)C(=O)N1C[C@H](O)C[C@H]1C(=O)N[C@@H]([C@@H](C)[C@@H](O)CO)C(=O)N2` [β-amanitin, reference compound]: the IC50 at 96 h in data set [3] (HEK293-OATP1B3 cells (OATP1B3 overexpressing HEK293), 96 h) was 8.5 ± 1.1 nM. Also, the viability at 96 h, 1 µM in data set [3] (HEK293-OATP1B3 cells (OATP1B3 overexpressing HEK293)) worked out at 0%. In addition, the “fold increase in toxicity / reduction of the IC50 value on HEK293-OATP1B3 relative to HEK293 cells” value in [5] is listed as 15 fold.
What is called Kd is a measure of binding affinity in units of concentration. As to amanitin, in data set [6], the Kd is 3 nM.
Usually Ki stands for a dissociation constant, usually derived from enzyme kinetics or from competition with a known ligand. Consider amanullin, for which, in [7], the inhibition constant Ki is 10 to 40 nM.
Consider proamanullin, for which the inhibition constant (Ki) in data set [7] is 5000 to 20000 nM.
Take “α-amanitin [Compound 1, reference compound]”: the IC50 in data set [2] (CHO cells, MTT assay, control) was 350 to 1100 nM; in data set [8] it was 130 ± 80 nM. The “Transcription activity E (%)” value in data set [4] (1 nM) was 85.0 ± 2.4%; in data set [4] (3 nM) it was 69.5 ± 9.4%; in data set [4] (10 nM), 48.1 ± 9.8%; in data set [4] (30 nM), 22.9 ± 2.6%; in data set [4] (100 nM), 9.5 ± 4.1%. In data set [9], the Ki is ~500 nM.

The record behind these values is US20240082416A1, “AMATOXIN ANALOGS AND USES THEREOF” (THE UNIVERSITY OF BRITISH COLUMBIA, priority 2020, published 2024).
